Patent US6790869B2, “Resveratrol analogs for prevention of disease” (Rutgers, The State University of New Jersey, priority 1999, dated 2004)
Read-outs that look alike come from different tables or passages of the source.

Assays:
W138 cells = experiment: Morphological changes in cells; type: cell-based, human; conditions: normal W138 cells
Excerpt: (§1) In addition to inhibition of cell growth, treatment of W138 and W138VA cells with analogs led to morphological changes in the cells. Treatment of W138 cells with resveratrol and its analogs R-1 and R-3 led to elongation of normal W138 cells. Methoxy analogs such as MR-0 and MR-3 caused the flattening of W138 cells.

[1] = test system: SV40-transformed W138 cells (W138VA); experiment: Cell proliferation assay, viable cells counted by trypan blue dye exclusion; type: cell-based, human; set-up: key to Growth Rate in Cells Following Exposure to Resveratrol Analogs, W138VA Cells: +: >60% growth inhibition; —: no effect or only slight inhibition observed; conditions: for Growth Rate in Cells Following Exposure to Resveratrol Analogs, W138VA Cells: at the concentration in parentheses after the analog, 5 days in culture
Experimental: (§2) Initial tests examined the potential cancer preventive activity of the analogs. Resveratrol and its analogs were evaluated in W138 and SV40 transformed W138VA cells and in preneoplastic 184-B5/HER and neoplastic SK-BR-3 human mammary epithelial cells. Cell proliferation, apoptosis, and gene expression studies were conducted using standard methodologies.
(§3) W138 human diploid fibroblasts and cancerous SV40-transformed W138 cells (W138VA) were used in a cell proliferation assay. Growth rate and viability of these cells was determined following addition of each analog. Doses tested ranged from 50 ng to 300 μg per ml or 1 μM to 100 μM concentrations in culture media. Cell cultures were grown for 5 days in the presence of the various doses of analogs. Growth rate was measured by counting viable cells using the trypan blue dye exclusion method. Resveratrol inhibited cell growth at low concentrations, less than 10 μM. […] MR-1 was not active as an inhibitor of cell growth even at doses as high as 100 μM.

W138 and W138VA cells = experiment: Cell proliferation assay, result not separated by cell line; type: cell-based, human; conditions: for effective concentration for growth inhibition: value in parentheses in Table 1, W138 / W138VA cells, 5 days
Experimental: as §2, §3

[2] = test system: W138 human diploid fibroblasts; experiment: Cell proliferation assay, viable cells counted by trypan blue dye exclusion; type: cell-based; set-up: key to Growth Rate in Cells Following Exposure to Resveratrol Analogs, W138 Cells: +: >60% growth inhibition; —: no effect or only slight inhibition observed; conditions: for Growth Rate in Cells Following Exposure to Resveratrol Analogs, W138 Cells: at the concentration in parentheses after the analog, 5 days in culture
Experimental: as §2, §3

[3] = test system: human glyceraldehyde-3-phosphate dehydrogenase (HG3PDH) expression; experiment: Targeted gene assay by RT-PCR; type: cell-based; conditions: W138 and W138VA cells, serum-stimulated from G0
Experimental: (§4) Targeted gene assay was then performed using RT-PCR. Both normal (W138) and cancerous (W138VA) cells at resting phase (G0) were treated with 10-15% fetal bovine serum to initiate growth stimulation. Cells were then harvested at various time points during cell cycle progression. Total RNA was prepared from these cells according to standard RT-PCR methods. Paired gene specific primers were prepared and used including human glyceraldehyde-3-phosphate dehydrogenase HG3PDH), c-fos, c-myc, ornithine decarboxylase (ODC), proliferating cell nuclear antigen (PCNA), thymidine kinase (TK), cyclooxygenase 2 (COX2), BRCA1, BRCA2, p53, APC, MCC, pRb, cyclooxygenase 1 (COX1), bc12, and Bax. […] Expression of c-fos and c-myc, an early G1 event in normal W138 cells, were both deregulated in transformed W138VA cells. […] Similarly, treatment of cells, both normal and transformed, with either resveratrol or MR-3 had no effect on expression of ODC, PCNA, or TK genes (all cell cycle dependent genes).

184-B5/HER cells [4] = experiment: Growth inhibition in 184-B5/HER cells; type: cell-based; conditions: Homo sapiens
Experimental: as §2
(§5) Resveratrol and its analogs were also tested in 184-B5/HER cells.

c-fos expression = experiment: Targeted gene assay by RT-PCR; type: cell-based, human; conditions: W138 and W138VA cells, serum-stimulated from G0
Experimental: as §4

[5] = test system: ornithine decarboxylase (ODC) gene expression; experiment: Targeted gene assay by RT-PCR; type: cell-based, human; conditions: both normal and transformed cells
Experimental: as §4

[6] = test system: thymidine kinase (TK) gene expression; experiment: Targeted gene assay by RT-PCR; type: cell-based, human; conditions: both normal and transformed cells
Experimental: as §4

c-myc expression = experiment: Targeted gene assay by RT-PCR; type: cell-based, human; conditions: W138 and W138VA cells, serum-stimulated from G0
Experimental: as §4

[7] = test system: proliferating cell nuclear antigen (PCNA) gene expression; experiment: Targeted gene assay by RT-PCR; type: cell-based, human; conditions: both normal and transformed cells
Experimental: as §4

[8] = test system: cyclooxygenase 2 (COX2) expression; experiment: Targeted gene assay by RT-PCR; type: cell-based, human
Experimental: as §4

[9] = test system: neutral β-galactosidase activity in W138 cells; experiment: Neutral β-galactosidase staining (senescence marker); type: cell-based, human; conditions: accompanying flattening
Excerpt: as §1

[10] = test system: oncogene expression preneoplastic breast epithelial cells; experiment: In vivo tumor inhibition in an orthotransplant model; conditions: mice, AIN-76A diet with 400 ppm
Experimental: The in vivo tumor inhibitory effects of MR-3 were tested in an orthotransplant model. Mice were transplanted with an oncogene expression preneoplastic breast epithelial cells. Mice were then divided into groups with the control group fed AIN-76A diet alone. Another group of mice was fed AIN-76A diet supplemented with 400 ppm MR-3.

184-B5/HER cells [11] = experiment: Anchorage-dependent colony formation assay; type: cell-based; conditions: Homo sapiens
Excerpt: Cell colony formation was also examined in 184-B5/HER cells. […] Resveratrol, MR-0 and MR-2 produced approximately 25-40% inhibition in the anchorage-dependent colony formation assay. MR-3, however, produced almost a 80% inhibition of colony formation.

184-B5/HER cells [12] = experiment: Cell cycle analysis; type: cell-based, human
Experimental: as §5

BRCA2 gene expression = experiment: Targeted gene assay by RT-PCR; type: cell-based, human; conditions: for effect on expression of BRCA2 gene: human cells, all time points examined
Experimental: as §4
(§6) Both BRCA1 and BRCA2 are breast cancer genes that together appear to be responsible for more than 60% of total hereditary breast cancers. Therefore, resveratrol and its analogs appear to modulate the breast cancer genes.

BRCA1 gene expression = experiment: Targeted gene assay by RT-PCR; type: cell-based, human; conditions: for effect on expression of BRCA1 gene: human cells, all time points examined
Experimental: as §4, §6

184-B5/HER cells [13] = experiment: Apoptosis assay, fluorescent labeling of fragmented DNA; type: cell-based, human
Excerpt: The effect of the analogs on apoptosis was also examined. Apoptosis is characterized by nuclear DNA fragmentation that is mediated through a variety of signal transduction pathways. An assay was used that relies on fluorescent labeling of fragmented DNA.

[14] = read-out: concentration that inhibited growth by 50% (IC50), 184-B5/HER cells
[15] = 184-B5/HER cells, continuous treatment with 4 μM, read-out: inhibition of colony formation

## Oc1cc(O)cc(C=Cc2ccccc2)c1 [Analog R-1, 3,5-dihydroxystilbene]
W138 cells
  morphological change of cells: elongation

## COc1cc(C=Cc2cc(OC)cc(OC)c2)cc(OC)c1 [MR-4, 3,3′,5′5′-tetramethoxystilbene]
[1]; W138VA cells, 100 μM
  inhibition of growth: not W138VA cells
[1]
  Growth Rate in Cells Following Exposure to Resveratrol Analogs, W138VA Cells: —
W138 and W138VA cells
  effective concentration for growth inhibition: MR4 (100 μM)
[2]; W138 cells, 100 μM
  inhibition of growth: inhibited growth
[2]
  Growth Rate in Cells Following Exposure to Resveratrol Analogs, W138 Cells: + (>60% growth inhibition)

## COc1ccc(C=Cc2cc(OC)c(OC)c(OC)c2)cc1 [MR-3, 3,4,4′,5-tetramethoxystilbene]
[3]
  effect on expression of HG3PDH: did not affect the expression
184-B5/HER cells [4]; 184B5, read-out: concentration that inhibited growth by 50% (IC50)
  IC50: 1 µM
c-fos expression
  effect on expression of c-fos: did not significantly affect the expression
[5]
  effect on expression of ODC gene: no effect
[6]
  effect on expression of TK gene: no effect
c-myc expression
  effect on expression of c-myc: did not significantly affect the expression
[7]
  effect on expression of PCNA gene: no effect
[8]; W138VA cells
  effect on expression of COX2: stimulated the expression
[8]; W138 cells
  effect on expression of COX2: not in W138 cells
[9]
  neutral β-galactosidase activity (staining): increase in neutral β-galactosidase activity
W138 cells
  morphological change of cells: flattening
[10]; 12 weeks
  weight gains compared with control group: comparable
[10]; 12 weeks continuous feeding, control group 100%
  tumor incidence: 20%
[1]; W138VA cells, 1 μM
  effect on proliferation: completely blocked proliferation
[1]
  Growth Rate in Cells Following Exposure to Resveratrol Analogs, W138VA Cells: + (>60% growth inhibition)
184-B5/HER cells [11]; 184B5, read-out: inhibition of colony formation
  inhibition at 4 µM: ~80%
184-B5/HER cells [12]
  cell cycle effect relative to solvent-treated control cultures: progressive arrest of cell in the G2/M phase
  rank in cell cycle arrest: most effective compound
W138 and W138VA cells
  rank in inhibiting cell growth among the methylated analogs: most effective
  effective concentration for growth inhibition: MR3 (1 μM)
[2]; W138 cells, 1 μM
  effect on growth: no effect
[2]
  Growth Rate in Cells Following Exposure to Resveratrol Analogs, W138 Cells: —
BRCA2 gene expression; at equal doses
  potency in inhibiting expression of BRCA2 compared with resveratrol: more potent than resveratrol
BRCA2 gene expression
  effect on expression of BRCA2 gene: completely abolished expression
BRCA1 gene expression; at equal doses
  potency in inhibiting expression of BRCA1 compared with resveratrol: more potent than resveratrol
BRCA1 gene expression
  effect on expression of BRCA1 gene: completely abolished expression
184-B5/HER cells [13]
  induction of apoptosis versus solvent-treated control cells: no effect

## Oc1ccc(C=Cc2cc(O)cc(O)c2)cc1 [Resveratrol, 3,4′,5-trihydroxystilbene]
[3]
  effect on expression of HG3PDH: did not affect the expression
184-B5/HER cells [4]; [14]
  IC50: 10.5 µM
c-fos expression
  effect on expression of c-fos: did not significantly affect the expression
[5]
  effect on expression of ODC gene: no effect
[6]
  effect on expression of TK gene: no effect
c-myc expression
  effect on expression of c-myc: did not significantly affect the expression
[7]
  effect on expression of PCNA gene: no effect
W138 cells
  morphological change of cells: elongation
[1]
  Growth Rate in Cells Following Exposure to Resveratrol Analogs, W138VA Cells: + (>60% growth inhibition)
184-B5/HER cells [11]; [15]
  inhibition at 4 µM: 25 to 40%
W138 and W138VA cells; 5 days in culture
  concentration at which cell growth was inhibited: less than 10 μM
W138 and W138VA cells
  effective concentration for growth inhibition: R0 (10 μM)^1
[2]
  Growth Rate in Cells Following Exposure to Resveratrol Analogs, W138 Cells: +^2 (>60% growth inhibition)
BRCA2 gene expression
  effect on expression of BRCA2 gene: completely abolished expression
BRCA1 gene expression
  effect on expression of BRCA1 gene: completely abolished expression
184-B5/HER cells [13]
  induction of apoptosis versus solvent-treated control cells: induced apoptosis to a significantly greater extent than solvent-treated control cells

## COc1cc(C=Cc2cc(OC)c(OC)c(OC)c2)cc(OC)c1 [MR-5, 3,3′,4,5,5′-pentamethoxystilbene]
[1]
  Growth Rate in Cells Following Exposure to Resveratrol Analogs, W138VA Cells: + (>60% growth inhibition)
W138 and W138VA cells
  effective concentration for growth inhibition: MR5 (100 μM)
[2]
  Growth Rate in Cells Following Exposure to Resveratrol Analogs, W138 Cells: + (>60% growth inhibition)

## COc1cc(C=Cc2ccccc2)cc(OC)c1 [MR-1, 3,5-dimethoxystilbene]
[1]
  Growth Rate in Cells Following Exposure to Resveratrol Analogs, W138VA Cells: —
W138 and W138VA cells; doses as high as 100 μM
  activity as an inhibitor of cell growth: not active
W138 and W138VA cells
  effective concentration for growth inhibition: MR1 (100 μM)
[2]
  Growth Rate in Cells Following Exposure to Resveratrol Analogs, W138 Cells: —^4

## COc1ccc(C=Cc2cc(OC)cc(OC)c2)cc1 [MR-0, 3,4′,5-trimethoxystilbene]
184-B5/HER cells [4]; [14]
  IC50: 10.5 µM
[9]
  neutral β-galactosidase activity (staining): increase in neutral β-galactosidase activity
W138 cells
  morphological change of cells: flattening
[1]; W138VA cells
  ability to inhibit cell growth compared with resveratrol: did not significantly affect
[1]
  Growth Rate in Cells Following Exposure to Resveratrol Analogs, W138VA Cells: + (>60% growth inhibition)
184-B5/HER cells [11]; [15]
  inhibition at 4 µM: 25 to 40%
184-B5/HER cells [12]
  cell cycle effect relative to solvent-treated control cultures: progressive arrest of cell in the G2/M phase
W138 and W138VA cells
  effective concentration for growth inhibition: MR0 (100 μM)
[2]; W138 cells
  ability to inhibit cell growth compared with resveratrol: less effective than resveratrol
[2]
  Growth Rate in Cells Following Exposure to Resveratrol Analogs, W138 Cells: + (>60% growth inhibition)
184-B5/HER cells [13]
  induction of apoptosis versus solvent-treated control cells: induced apoptosis to a significantly greater extent than solvent-treated control cells

## COc1cc(C=Cc2ccc(OC)c(OC)c2)cc(OC)c1 [MR-2, 3,3′,4,5′-tetramethoxystilbene]
184-B5/HER cells [4]; [14]
  IC50: 120 µM
184-B5/HER cells [11]; [15]
  inhibition at 4 µM: 25 to 40%
184-B5/HER cells [12]
  cell cycle effect relative to solvent-treated control cultures: progressive arrest of cell in the G2/M phase
184-B5/HER cells [13]
  induction of apoptosis versus solvent-treated control cells: induced apoptosis to a significantly greater extent than solvent-treated control cells
